Tested on: insulin resistant rats
Experiment: Euglycemic insulin clamp in High Fat Diet fed insulin resistant rats after a single oral dose
Format: in vivo, Male Wistar rats
Details: for EGP (endogenous glucose production) / GIR (glucose infusion rate) / GU (glucose utilization): 4 hrs before clamp, mean ± sem
Protocol: Male Wistar rats were fed a High Fat Diet for at least 4 weeks. Jugular vein and carotid artery cannulations were performed one week prior to the clamp experiment. Test compound (Compound 15) is administered p.o. 4 hrs before the clamp and labeled 3-3H-glucose is infused 1 hr prior to calculated endogenous glucose production (EGP). Insulin is infused at a rate of 0.75 U/kg/hr raising plasma insulin levels to […]. To maintain euglycemia (80 mg/dl), unlabeled glucose is infused at a variable rate and adjusted every 10 minutes.

SMILES: CCc1ccc(-c2sc(NC(=O)c3ccc(S(=O)(=O)N[C@@H](Cc4ccccc4)C(=O)O)cc3)nc2-c2ccc(Cl)cc2)cc1 [Compound 15, N-{[4-({[4-(4-chlorophenyl)-5-(4-ethylphenyl)-1,3-thiazol-2-yl]amino}carbonyl)phenyl]sulfonyl}phenylalanine]
- EGP (endogenous glucose production) (10 mg/kg single oral dose): 1.4 ± 1.8 mg/kg/min
- GIR (glucose infusion rate) (10 mg/kg single oral dose): 29.6 ± 5.0 mg/kg/min
- GU (glucose utilization) (10 mg/kg single oral dose): 28.3 ± 6.6 mg/kg/min
- effect on endogenous glucose production (EGP) (30 mg/kg p.o., result in words): enhanced suppression
- effect on glucose infusion rate (GIR) (30 mg/kg p.o., result in words): significantly increased
- effect on glucose utilization (GU) (30 mg/kg p.o., result in words): augmented stimulation
- EGP (endogenous glucose production) (30 mg/kg single oral dose): 0.16 ± 0.5 mg/kg/min
- GIR (glucose infusion rate) (30 mg/kg single oral dose): 30.8 ± 2.2 mg/kg/min
- GU (glucose utilization) (30 mg/kg single oral dose): 30.7 ± 2.00 mg/kg/min
- EGP (endogenous glucose production) (60 mg/kg single oral dose): 0.77 ± 0.4 mg/kg/min
- GIR (glucose infusion rate) (60 mg/kg single oral dose): 38.0 ± 2.2 mg/kg/min
- GU (glucose utilization) (60 mg/kg single oral dose): 37.3 ± 2.3 mg/kg/min

Source: US20040248937A1, “Substituted phenylalkanoic acids for the treatment of diabetes” (The Institute for Pharmaceutical Discovery LLC, priority 2003, published 2004)
